According to patent US20210045385A1, “PYRIDAZINONE-SUBSTITUTED KETOXIMES AS HERBICIDES” (FMC Corporation, priority 2018, published 2021):

Key:
Format in all cases: in vivo
[1] = system: Italian ryegrass (Lolium multiflorum); assay: Test A preemergence, visual plant response rating; details: for Ryegrass, Italian plant response rating: 125 g ai/ha, preemergence, 0 to 100 scale, 0 no effect, 100 complete control; for Ryegrass, Italian plant response rating (0 to 100 scale): 500 g ai/ha Preemergence, approx. 10 days
How it was run: (§1)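 Preemergence: seeds in loam/sand blend given directed soil spray of compound in non-phytotoxic solvent with surfactant. Postemergence: plants 2–10 cm, one- to two-leaf stage, sprayed with same formulation. Visual injury rated vs untreated controls after ~10 days in greenhouse, 0 (no effect) to 100 (complete control).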

[2] = system: barnyardgrass (Echinochloa crus-galli); assay: Test A preemergence, visual plant response rating; details: for Barnyardgrass plant response rating: 125 g ai/ha, preemergence, 0 to 100 scale, 0 no effect, 100 complete control; for Barnyardgrass plant response rating (0 to 100 scale): 500 g ai/ha Preemergence, approx. 10 days
How it was run: as §1

[3] = system: foxtail, giant (giant foxtail, Setaria faberii); assay: Test A preemergence, visual plant response rating; details: for Foxtail, Giant plant response rating: 125 g ai/ha, preemergence, 0 to 100 scale, 0 no effect, 100 complete control; for Foxtail, Giant plant response rating (0 to 100 scale): 500 g ai/ha Preemergence, approx. 10 days
How it was run: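 Formulated in a non-phytotoxic solvent mixture including surfactant, each test chemical was sprayed onto the soil surface after sowing, or onto seedlings 2 to 10 cm high. Roughly 10 days later, plants were compared with untreated controls and rated for injury from 0 (no effect) to 100 (complete control).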

kochia (Kochia scoparia) [4] = assay: Test A preemergence, visual plant response rating; details: for Kochia plant response rating (0 to 100 scale): 500 g ai/ha Preemergence, approx. 10 days
How it was run: as §1

[5] = system: pigweed (Amaranthus retroflexus); assay: Test A preemergence, visual plant response rating; details: for Pigweed plant response rating: 125 g ai/ha, preemergence, 0 to 100 scale, 0 no effect, 100 complete control; for Pigweed plant response rating (0 to 100 scale): 500 g ai/ha Preemergence, approx. 10 days
How it was run: as §1

[6] = system: ragweed (common ragweed, Ambrosia elatior); assay: Test A preemergence, visual plant response rating; details: for Ragweed plant response rating: 125 g ai/ha, preemergence, 0 to 100 scale, 0 no effect, 100 complete control; for Ragweed plant response rating (0 to 100 scale): 500 g ai/ha Preemergence, approx. 10 days
How it was run: as §1

[7] = system: Italian ryegrass (Lolium multiflorum); assay: Test A postemergence, visual plant response rating; details: for Ryegrass, Italian plant response rating (0 to 100 scale): 500 g ai/ha, postemergence, 0 is no effect, 100 is complete control; for Ryegrass, Italian plant response rating: Postemergence, 125 g ai/ha, 0 to 100 scale (0 no effect, 100 complete control)
How it was run: as §1

[8] = system: barnyardgrass (Echinochloa crus-galli); assay: Test A postemergence, visual plant response rating; details: for Barnyardgrass plant response rating (0 to 100 scale): 500 g ai/ha, postemergence, 0 is no effect, 100 is complete control; for Barnyardgrass plant response rating: Postemergence, 125 g ai/ha, 0 to 100 scale (0 no effect, 100 complete control)
How it was run: as §1

[9] = system: blackgrass (Alopecurus myosuroides); assay: Test A postemergence, visual plant response rating; details: for Blackgrass plant response rating (0 to 100 scale): 500 g ai/ha, postemergence, 0 is no effect, 100 is complete control; for Blackgrass plant response rating: Postemergence, 125 g ai/ha, 0 to 100 scale (0 no effect, 100 complete control)
How it was run: as §1

corn (Zea mays) = assay: Test A postemergence, visual plant response rating; details: for Corn plant response rating (0 to 100 scale): 500 g ai/ha, postemergence, 0 is no effect, 100 is complete control; for Corn plant response rating: Postemergence, 125 g ai/ha, 0 to 100 scale (0 no effect, 100 complete control)
How it was run: as §1

[10] = system: foxtail, giant (giant foxtail, Setaria faberii); assay: Test A postemergence, visual plant response rating; details: for Foxtail, Giant plant response rating (0 to 100 scale): 500 g ai/ha, postemergence, 0 is no effect, 100 is complete control; for Foxtail, Giant plant response rating: Postemergence, 125 g ai/ha, 0 to 100 scale (0 no effect, 100 complete control)
How it was run: as §1

[11] = system: galium (catchweed bedstraw, Galium aparine); assay: Test A postemergence, visual plant response rating; details: for Galium plant response rating (0 to 100 scale): 500 g ai/ha, postemergence, 0 is no effect, 100 is complete control; for Galium plant response rating: Postemergence, 125 g ai/ha, 0 to 100 scale (0 no effect, 100 complete control)
How it was run: as §1

kochia (Kochia scoparia) [12] = assay: Test A postemergence, visual plant response rating; details: for Kochia plant response rating (0 to 100 scale): 500 g ai/ha, postemergence, 0 is no effect, 100 is complete control; for Kochia plant response rating: Postemergence, 125 g ai/ha, 0 to 100 scale (0 no effect, 100 complete control)
How it was run: as §1

[13] = system: pigweed (Amaranthus retroflexus); assay: Test A postemergence, visual plant response rating; details: for Pigweed plant response rating (0 to 100 scale): 500 g ai/ha, postemergence, 0 is no effect, 100 is complete control; for Pigweed plant response rating: Postemergence, 125 g ai/ha, 0 to 100 scale (0 no effect, 100 complete control)
How it was run: as §1

[14] = system: ragweed (common ragweed, Ambrosia elatior); assay: Test A postemergence, visual plant response rating; details: for Ragweed plant response rating (0 to 100 scale): 500 g ai/ha, postemergence, 0 is no effect, 100 is complete control; for Ragweed plant response rating: Postemergence, 125 g ai/ha, 0 to 100 scale (0 no effect, 100 complete control)
How it was run: as §1

[15] = system: wheat (Triticum aestivum); assay: Test A postemergence, visual plant response rating; details: for Wheat plant response rating (0 to 100 scale): 500 g ai/ha, postemergence, 0 is no effect, 100 is complete control; for Wheat plant response rating: Postemergence, 125 g ai/ha, 0 to 100 scale (0 no effect, 100 complete control)
How it was run: as §1

[16] = system: barnyardgrass (Echinochloa crus-galli); assay: Test B flooded paddy test, visual plant response rating; details: 250 g ai/ha, Flood, applied to paddy water, 2-leaf stage, evaluated after 13 to 15 days
How it was run: (§2)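 Test pots are flooded 3 cm above the soil at treatment, and the test substance is introduced into this standing water. After keeping the flood level and growing plants, treated at the 2-leaf stage, for 13 to 15 days under glass, injury is assessed visually versus controls.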

[17] = system: ducksalad (Heteranhera limosa); assay: as above; details: 250 g ai/ha, Flood, applied to paddy water, 2-leaf stage, evaluated after 13 to 15 days
How it was run: as §2

rice (Oryza sativa) = assay: as above; details: 250 g ai/ha, Flood, applied to paddy water, 2-leaf stage, evaluated after 13 to 15 days
How it was run: as §2

[18] = system: sedge, umbrella (small-flower umbrella sedge, Cyperus difformis); assay: as above; details: 250 g ai/ha, Flood, applied to paddy water, 2-leaf stage, evaluated after 13 to 15 days
How it was run: as §2

Structure (SMILES) | Ryegrass, Italian plant response rating [1] | Ryegrass, Italian plant response rating (0 to 100 scale) [1] | Barnyardgrass plant response rating [2] | Barnyardgrass plant response rating (0 to 100 scale) [2] | Foxtail, Giant plant response rating [3] | Foxtail, Giant plant response rating (0 to 100 scale) [3] | Kochia plant response rating (0 to 100 scale) (kochia (Kochia scoparia) [4]) | Pigweed plant response rating [5] | Pigweed plant response rating (0 to 100 scale) [5] | Ragweed plant response rating [6] | Ragweed plant response rating (0 to 100 scale) [6] | Ryegrass, Italian plant response rating (0 to 100 scale) [7] | Ryegrass, Italian plant response rating [7] | Barnyardgrass plant response rating (0 to 100 scale) [8] | Barnyardgrass plant response rating [8] | Blackgrass plant response rating (0 to 100 scale) [9] | Blackgrass plant response rating [9] | Corn plant response rating (0 to 100 scale) (corn (Zea mays)) | Corn plant response rating (corn (Zea mays)) | Foxtail, Giant plant response rating (0 to 100 scale) [10] | other results
C=CCON=C(c1c(O)c(C)nn(C)c1=O)c1cc(Br)cc2ccccc12 [Compound 115] | 80 | 90 | 90 | 100 | 90 | 100 | 10 | 30 | 90 | 90 | 90 | 90 | 80 | 90 | 80 | 90 | 80 | 70 | 20 | 90 | Foxtail, Giant plant response rating [10]: 90; Galium plant response rating (0 to 100 scale) [11]: 100; Galium plant response rating [11]: 100; Kochia plant response rating (0 to 100 scale) (kochia (Kochia scoparia) [12]): 60; Kochia plant response rating (kochia (Kochia scoparia) [12]): 30; Pigweed plant response rating (0 to 100 scale) [13]: 90; Pigweed plant response rating [13]: 60; Ragweed plant response rating (0 to 100 scale) [14]: 100; Ragweed plant response rating [14]: 90; Wheat plant response rating (0 to 100 scale) [15]: 40; Wheat plant response rating [15]: 20; Plant response rating, Barnyardgrass (0 to 100 scale, 0 is no effect, 100 is complete control) [16]: 75; Plant response rating, Ducksalad (0 to 100 scale, 0 is no effect, 100 is complete control) [17]: 80; Plant response rating, Rice (0 to 100 scale, 0 is no effect, 100 is complete control) (rice (Oryza sativa)): 35; Plant response rating, Sedge, Umbrella (0 to 100 scale, 0 is no effect, 100 is complete control) [18]: 85
C#CCON=C(c1c(O)c(C)nn(C)c1=O)c1cc(Br)cc2ccccc12 [Compound 116] | 100 | 100 | 100 | 100 | 90 | 100 | 100 | 100 | 100 | 90 | 90 | 100 | 90 | 90 | 90 | 100 | 100 | 80 | 30 | 90 | Kochia plant response rating (kochia (Kochia scoparia) [4]; 125 g ai/ha, preemergence, 0 to 100 scale, 0 no effect, 100 complete control): 10; Foxtail, Giant plant response rating [10]: 90; Galium plant response rating (0 to 100 scale) [11]: 100; Galium plant response rating [11]: 100; Kochia plant response rating (0 to 100 scale) (kochia (Kochia scoparia) [12]): 80; Kochia plant response rating (kochia (Kochia scoparia) [12]): 60; Pigweed plant response rating (0 to 100 scale) [13]: 100; Pigweed plant response rating [13]: 90; Ragweed plant response rating (0 to 100 scale) [14]: 100; Ragweed plant response rating [14]: 100; Wheat plant response rating (0 to 100 scale) [15]: 60; Wheat plant response rating [15]: 50; Plant response rating, Barnyardgrass (0 to 100 scale, 0 is no effect, 100 is complete control) [16]: 55; Plant response rating, Ducksalad (0 to 100 scale, 0 is no effect, 100 is complete control) [17]: 60; Plant response rating, Rice (0 to 100 scale, 0 is no effect, 100 is complete control) (rice (Oryza sativa)): 5; Plant response rating, Sedge, Umbrella (0 to 100 scale, 0 is no effect, 100 is complete control) [18]: 30
